Source: US6921764B2, “Thieno-pyrimidin-4-one AMPA antagonists” (Pfizer Inc., priority 1997, dated 2005)

test system: rat global ischemia models; details: reported in literature; cited from earlier work

Compound | neuroprotection in rat global ischemia models
CC1=NN=C(c2ccc(N)cc2)c2cc3c(cc2C1)OCO3 [GKYI 52466] | effective neuroprotective agent

test system: not given; details: not given

melting point [°C] | Compound
183 to 187 | N#Cc1ccccc1NCc1nc2ccc(F)cc2c(=O)n1-c1cccnc1Cl
140 | O=c1c2cc(F)ccc2nc(CNCc2ccccc2F)n1-c1ccccc1Cl
145 to 150 | N#Cc1cccnc1NCc1nc2ccc(F)cc2c(=O)n1-c1ccccc1Cl
180 to 182 | O=c1c2cc(F)ccc2nc(CNc2ccccc2F)n1-c1cccnc1Cl
148 to 151 | Cl.O=c1c2sccc2nc(CNc2cccc(CN3CCCC3)c2)n1-c1ccccc1Cl
225 to 228 | N#Cc1cccc(NCc2nc3ccc(F)cc3c(=O)n2-c2ccccc2Cl)c1
182 to 185 | O=c1c2cc(F)ccc2nc(CNc2ncccn2)n1-c1ccccc1Cl
190 to 195 | Cc1cccc(NCc2nc3ccc(F)cc3c(=O)n2-c2cccnc2Cl)n1
90 to 100 | Cl.O=c1c2cc(F)ccc2nc(CNc2ccccn2)n1-c1ccccc1Cl
105 to 110 | O=c1c2cc(F)ccc2nc(CNc2cccc(CN3CCCC3)c2)n1-c1ccccc1Cl [Example 12, 3-(2-Chloro-phenyl)-6-fluoro-2-[(3-pyrrolidin-1-ylmethyl-phenylamino)-methyl]-3H-quinazolin-4-one]
175 to 176 | O=c1c2sccc2nc(CNc2ccccc2F)n1-c1ccccc1Cl [Example 17, 3-(2-Chloro-phenyl)-2-[(2-fluoro-phenylamino)-methyl]-3H-thieno[3,2-d]pyrimidin-4-one]

test system: global and focal ischemic damage; details: focal and global ischemia models; reported in literature; cited from earlier work

Compound | prevention of global and focal ischemic damage
NS(=O)(=O)c1cccc2c1c([N+](=O)[O-])cc1nc(O)c(O)nc12 [NBOX, 2,3-dihydroxy-6-nitro-7-sulfamoylbenzo[f-]quinoxaline] | effective in preventing global and focal ischemic damage
